In US6645918B1, “N-([1,2,4]triazoloazinyl)thiophenesulfonamide compounds and their use as herbicides” (Dow AgroSciences LLC, priority 2000, dated 2003):

Experiments:
Assay type in all cases: in vivo
[1] = system: barnyardgrass (Echinochloa crus-galli); assay: Preemergence herbicidal activity, barnyardgrass; conditions: soil spray, visual after 3 weeks, 0 no injury, 100 complete kill or no germination
Method: (§1) The soil matrix was contained in plastic pots with a surface area of 161 square centimeters. When required to ensure good germination and healthy plants, a fungicide treatment and/or other chemical or physical treatment was applied. A weighed amount, determined by the highest rate to be tested, of each test compound was placed in a 20 mL glass vial and was dissolved in 8 mL of a 97:3 v/v (volume/volume) mixture of acetone and dimethyl sulfoxide to obtain concentrated stock solutions. […] The stock solutions obtained were diluted with a 99.9:0.1 mixture of water and Tween® 155 surfactant (ethoxylated sorbitan fatty acid ester) to obtain application solutions of known concentration. The solutions containing the highest concentration to be tested were prepared by diluting 4 mL aliquots of the stock solution with 8.5 mL of the mixture and lower concentrations were prepared by dilution of appropriate smaller portions of the stock solution. A 2.5 mL aliquot of each solution of known concentration was sprayed evenly onto the soil of each seeded pot using a Cornwall 5.0 mL glass syringe fitted with a TeeJet TN-3 hollow cone nozzle to obtain thorough coverage of the soil in each pot. Control pots were sprayed in the same manner with the aqueous mixture. A highest application rate of 4.48 kg/ha is achieved when 50 mg of test compound is employed. The treated pots and control pots were placed in a greenhouse with an approximately 15 hr photoperiod which was maintained at about 23-29° C. during the day and 22-28° C. during the night. Nutrients and water were added on a regular basis and supplemental lighting was provided with overhead metal halide 1000 Watt lamps as necessary. The water was added by top-irrigation. After 3 weeks the condition of the test plants that germinated and grew as compared with that of the untreated plants that germinated and grew was determined visually and scored on a scale of 0 to 100 percent where 0 corresponds to no injury and 100 corresponds to complete kill or no germination.

[2] = system: cocklebur (Xanthium strumarium); assay: Postemergence herbicidal activity, cocklebur; conditions: foliar spray, visual after 2 weeks, 0 no injury, 100 complete kill
Method: (§2) Seeds of the desired test plant species were planted in Grace-Sierra MetroMix® 306 planting mixture, which typically has a pH of 6.0 to 6.8 and an organic matter content of about 30 percent, in plastic pots with a surface area of 64 square centimeters. When required to ensure good germination and healthy plants, a fungicide treatment and/or other chemical or physical treatment was applied. The plants were grown for 7-21 days in a greenhouse with an approximately 15 hr photoperiod which was maintained at about 23-29° C. during the day and 22-28° C. during the night. Nutrients and water were added on a regular basis and supplemental lighting was provided with overhead metal halide 1000 Watt lamps as necessary. The plants were employed for testing when they reached the first or second true leaf stage. A weighed amount of each test compound, determined by the highest rate to be tested, was placed in a 20 mL glass vial and was dissolved in 4 mL of a 97:3 v/v (volume/volume) mixture of acetone and dimethyl sulfoxide to obtain concentrated stock solutions. […] The concentrated stock solutions obtained were diluted with an aqueous mixture containing acetone, water, iso-propyl alcohol, dimethyl sulfoxide, Atplus 411F crop oil concentrate, and Triton X-155 surfactant (methylenebisdiamyl phenoxy polyethoxy ethanol) in a 48.5:39:10:1.5:1.0:0.02 v/v ratio to obtain spray solutions of known concentration. The solutions containing the highest concentration to be tested were prepared by diluting 2 mL aliquots of the stock solution with 13 mL of the mixture and lower concentrations were prepared by dilution of appropriate smaller portions of the stock solution. Approximately 1.5 mL aliquots of each solution of known concentration were sprayed evenly onto each of the test plant pots using a DeVilbiss atomizer driven by compressed air pressure of 2 to 4 psi (140 to 280 kilopascals) to obtain thorough coverage of each plant. Control plants were sprayed in the same manner with the aqueous mixture. In this test an application rate of 1 ppm results in the application of approximately 1 g/ha. The treated plants and control plants were placed in a greenhouse as described above and watered by sub-irrigation to prevent wash-off of the test compounds. After 2 weeks the condition of the test plants as compared with that of the untreated plants was determined visually and scored on a scale of 0 to 100 percent where 0 corresponds to no injury and 100 corresponds to complete kill.

[3] = system: lambsquarters (Chenopodium album); assay: Preemergence herbicidal activity, lambsquarters; conditions: soil spray, visual after 3 weeks, 0 no injury, 100 complete kill or no germination
Method: as §1

[4] = system: Rox orange sorghum (Sorghum bicolor); assay: Preemergence herbicidal activity, Rox orange sorghum; conditions: soil spray, visual after 3 weeks, 0 no injury, 100 complete kill or no germination
Method: as §1

[5] = system: crabgrass (Digitaria sanguinalis); assay: Preemergence herbicidal activity, crabgrass; conditions: soil spray, visual after 3 weeks, 0 no injury, 100 complete kill or no germination
Method: as §1

[6] = system: morningglory (Ipomoea hederacea); assay: Preemergence herbicidal activity, morningglory; conditions: soil spray, visual after 3 weeks, 0 no injury, 100 complete kill or no germination
Method: as §1

[7] = system: morningglory (Ipomoea hederacea); assay: Postemergence herbicidal activity, morningglory; conditions: foliar spray, visual after 2 weeks, 0 no injury, 100 complete kill
Method: as §2

[8] = system: pigweed (Amaranthus retroflexus); assay: Postemergence herbicidal activity, pigweed; conditions: foliar spray, visual after 2 weeks, 0 no injury, 100 complete kill
Method: as §2

[9] = system: velvetleaf (Abutilion theophrasti); assay: Postemergence herbicidal activity, velvetleaf; conditions: foliar spray, visual after 2 weeks, 0 no injury, 100 complete kill
Method: as §2

[10] = system: viola (Viola tricolor); assay: Postemergence herbicidal activity, viola; conditions: foliar spray, visual after 2 weeks, 0 no injury, 100 complete kill
Method: as §2

[11] = system: blackgrass (Alopecurus myosuroides); assay: Postemergence herbicidal activity, blackgrass; conditions: foliar spray, visual after 2 weeks, 0 no injury, 100 complete kill
Method: as §2

[12] = system: wild buckwheat (Polygonum convolvulus); assay: Postemergence herbicidal activity, wild buckwheat; conditions: foliar spray, visual after 2 weeks, 0 no injury, 100 complete kill
Method: as §2

[13] = system: wild poinsettia (Euphorbia heterophylla); assay: Preemergence herbicidal activity, wild poinsettia; conditions: soil spray, visual after 3 weeks, 0 no injury, 100 complete kill or no germination
Method: as §1

[14] = system: velvetleaf (Abutilion theophrasti); assay: Preemergence herbicidal activity, velvetleaf; conditions: soil spray, visual after 3 weeks, 0 no injury, 100 complete kill or no germination
Method: as §1

[15] = system: cocklebur (Xanthium strumarium); assay: Preemergence herbicidal activity, cocklebur; conditions: soil spray, visual after 3 weeks, 0 no injury, 100 complete kill or no germination
Method: as §1

[16] = system: blackgrass (Alopecurus myosuroides); assay: Preemergence herbicidal activity, blackgrass; conditions: soil spray, visual after 3 weeks, 0 no injury, 100 complete kill or no germination
Method: as §1

[17] = system: pigweed (Amaranthus retroflexus); assay: Preemergence herbicidal activity, pigweed; conditions: soil spray, visual after 3 weeks, 0 no injury, 100 complete kill or no germination
Method: as §1

[18] = system: lambsquarters (Chenopodium album); assay: Postemergence herbicidal activity, lambsquarters; conditions: foliar spray, visual after 2 weeks, 0 no injury, 100 complete kill
Method: as §2

[19] = system: giant foxtail (Setaria faberi); assay: Preemergence herbicidal activity, giant foxtail; conditions: soil spray, visual after 3 weeks, 0 no injury, 100 complete kill or no germination
Method: as §1

[20] = system: giant foxtail (Setaria faberi); assay: Postemergence herbicidal activity, giant foxtail; conditions: foliar spray, visual after 2 weeks, 0 no injury, 100 complete kill
Method: as §2

[21] = system: wild oats (Avena fatua); assay: Preemergence herbicidal activity, wild oats; conditions: soil spray, visual after 3 weeks, 0 no injury, 100 complete kill or no germination
Method: as §1

[22] = system: chickweed (Stellaria media); assay: Postemergence herbicidal activity, chickweed; conditions: foliar spray, visual after 2 weeks, 0 no injury, 100 complete kill
Method: as §2

[23] = system: Rox orange sorghum (Sorghum bicolor); assay: Postemergence herbicidal activity, Rox orange sorghum; conditions: foliar spray, visual after 2 weeks, 0 no injury, 100 complete kill
Method: as §2

[24] = system: wild oats (Avena fatua); assay: Postemergence herbicidal activity, wild oats; conditions: foliar spray, visual after 2 weeks, 0 no injury, 100 complete kill
Method: as §2

COc1cscc1S(=O)(=O)Nc1nc2c(Cl)cnc(OC)n2n1 [Compound 14]
ECHCG preemergence injury score 0-100 ([1]; 35 g/Ha): 98% | XANST postemergence injury score 0-100 ([2]; 31.3 ppm): 95% | CHEAL preemergence injury score 0-100 ([3]; 35 g/Ha): 98% | SORBI preemergence injury score 0-100 ([4]; 35 g/Ha): 100% | DIGSA preemergence injury score 0-100 ([5]; 35 g/Ha): 100% | IPOHE preemergence injury score 0-100 ([6]; 35 g/Ha): 60% | IPOHE postemergence injury score 0-100 ([7]; 31.3 ppm): 80% | AMARE postemergence injury score 0-100 ([8]; 31.3 ppm): 95% | ABUTH postemergence injury score 0-100 ([9]; 31.3 ppm): 90% | VIOTR postemergence injury score 0-100 ([10]; 31.3 ppm): 75% | ALOMY postemergence injury score 0-100 ([11]; 31.3 ppm): 80% | POLCO postemergence injury score 0-100 ([12]; 31.3 ppm): 95% | EPHHL preemergence injury score 0-100 ([13]; 35 g/Ha): 30% | ABUTH preemergence injury score 0-100 ([14]; 35 g/Ha): 80% | XANST preemergence injury score 0-100 ([15]; 35 g/Ha): 60% | ALOMY preemergence injury score 0-100 ([16]; 35 g/Ha): 100% | AMARE preemergence injury score 0-100 ([17]; 35 g/Ha): 80% | CHEAL postemergence injury score 0-100 ([18]; 31.3 ppm): 100% | SETFA preemergence injury score 0-100 ([19]; 35 g/Ha): 100% | SETFA postemergence injury score 0-100 ([20]; 31.3 ppm): 95% | AVEFA preemergence injury score 0-100 ([21]; 35 g/Ha): 100% | STEME postemergence injury score 0-100 ([22]; 31.3 ppm): 100% | SORBI postemergence injury score 0-100 ([23]; 31.3 ppm): 95% | AVEFA postemergence injury score 0-100 ([24]; 31.3 ppm): 80%

COc1cc(OC)n2nc(NS(=O)(=O)c3c(OC)csc3C)nc2n1 [Compound 24]
ECHCG preemergence injury score 0-100 ([1]; 8.8 g/Ha): 40% | XANST postemergence injury score 0-100 ([2]; 7.8 ppm): 90% | CHEAL preemergence injury score 0-100 ([3]; 8.8 g/Ha): 100% | SORBI preemergence injury score 0-100 ([4]; 8.8 g/Ha): 100% | DIGSA preemergence injury score 0-100 ([5]; 8.8 g/Ha): 98% | IPOHE preemergence injury score 0-100 ([6]; 8.8 g/Ha): 98% | IPOHE postemergence injury score 0-100 ([7]; 7.8 ppm): 80% | AMARE postemergence injury score 0-100 ([8]; 7.8 ppm): 100% | ABUTH postemergence injury score 0-100 ([9]; 7.8 ppm): 70% | VIOTR postemergence injury score 0-100 ([10]; 7.8 ppm): 70% | ALOMY postemergence injury score 0-100 ([11]; 7.8 ppm): 80% | POLCO postemergence injury score 0-100 ([12]; 7.8 ppm): 70% | EPHHL preemergence injury score 0-100 ([13]; 8.8 g/Ha): 80% | ABUTH preemergence injury score 0-100 ([14]; 8.8 g/Ha): 98% | XANST preemergence injury score 0-100 ([15]; 8.8 g/Ha): 70% | ALOMY preemergence injury score 0-100 ([16]; 8.8 g/Ha): 90% | AMARE preemergence injury score 0-100 ([17]; 8.8 g/Ha): 90% | CHEAL postemergence injury score 0-100 ([18]; 7.8 ppm): 85% | SETFA preemergence injury score 0-100 ([19]; 8.8 g/Ha): 100% | SETFA postemergence injury score 0-100 ([20]; 7.8 ppm): 90% | AVEFA preemergence injury score 0-100 ([21]; 8.8 g/Ha): 70% | STEME postemergence injury score 0-100 ([22]; 7.8 ppm): 80% | SORBI postemergence injury score 0-100 ([23]; 7.8 ppm): 100% | AVEFA postemergence injury score 0-100 ([24]; 7.8 ppm): 70%
